For test [1], the target named is T1, SIRT1 (Homo sapiens, UniProt Q96EB6).
T1 sequence (Q96EB6 1-747): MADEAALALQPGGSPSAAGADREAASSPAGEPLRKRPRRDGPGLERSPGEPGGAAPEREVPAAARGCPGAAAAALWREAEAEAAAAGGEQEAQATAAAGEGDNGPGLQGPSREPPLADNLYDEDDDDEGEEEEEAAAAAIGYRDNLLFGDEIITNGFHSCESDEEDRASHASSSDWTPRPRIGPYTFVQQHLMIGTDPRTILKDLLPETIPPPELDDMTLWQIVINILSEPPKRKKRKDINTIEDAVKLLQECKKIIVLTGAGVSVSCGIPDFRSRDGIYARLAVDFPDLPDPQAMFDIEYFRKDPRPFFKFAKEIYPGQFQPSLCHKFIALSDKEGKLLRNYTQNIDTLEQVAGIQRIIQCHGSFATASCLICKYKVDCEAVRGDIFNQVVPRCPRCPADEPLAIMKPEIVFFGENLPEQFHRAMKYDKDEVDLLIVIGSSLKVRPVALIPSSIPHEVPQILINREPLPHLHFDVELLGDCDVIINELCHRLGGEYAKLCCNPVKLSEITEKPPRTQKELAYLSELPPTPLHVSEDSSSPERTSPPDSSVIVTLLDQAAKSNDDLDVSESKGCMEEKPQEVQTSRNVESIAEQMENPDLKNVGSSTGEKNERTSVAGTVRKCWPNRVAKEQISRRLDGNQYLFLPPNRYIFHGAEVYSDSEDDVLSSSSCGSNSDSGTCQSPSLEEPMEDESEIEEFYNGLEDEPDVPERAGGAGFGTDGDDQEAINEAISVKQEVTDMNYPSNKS
The experiment in a line: Trp mass spectrometry assay of SIRT1 activity. In kind it is biochemical. To be noted: for Trp EC1.5 / Trp EC1.5 (μM): concentration giving 150% activation of SIRT1; for Emax: percent maximum fold activation, read-out: Trp % Fold Act. A digest of the protocol:
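His-tagged SIRT1 expressed in E. coli BL21(DE3), 10 nM, incubated 25 min at 25° C. with 0.5 μM Ac-RHKK(Ac)W-NH2 peptide and 120 μM βNAD+ in 50 mM HEPES pH 7.5, […], 1 mM DTT, 0.05% BSA; formic acid stop. OAADPR or deacetylated peptide measured by mass spectrometry; EC1.5 and percent maximum activation versus DMSO control.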

Test [2] concerns the target T1, SIRT1. The test can be described thus: TAMRA based mass spectrometry assay of SIRT1 activity. In kind it is biochemical. The settings on record: for TAMRA EC1.5 / TAMRA EC1.5 (μM): concentration giving 150% activation of SIRT1; for Emax: percent maximum fold activation, read-out: TAMRA % Fold Act. A digest of the protocol:
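Recombinant N-terminal His-tagged human SIRT1 (10 nM, E. coli) incubated 25 min at 25 °C with 0.5 μM 5TMR-labelled p53-derived acetyl-peptide and 120 μM βNAD+ in Tris-acetate pH 8 buffer with DTT and 0.05% BSA, compound at varying concentrations. Stopped with formic acid; deacetylated peptide or OAADPR measured by mass spectrometry relative to DMSO controls.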

Experimental findings from US9957271B2, “Substituted bicyclic aza-heterocycles and analogues as sirtuin modulators” (GlaxoSmithKline, LLC, priority 2012, dated 2018) are described below.

Take `Cc1nc2c(C)cc(-c3ccccc3C(F)(F)F)nn2c1NC(=O)c1cccc(O)n1` [Compound 590]: at SIRT1 [1] (Trp peptide substrate), the “Trp EC1.5” value is “C (EC1.5>25 μM)” and the Emax was under 350%. On SIRT1 [2] (TAMRA peptide substrate), the “TAMRA EC1.5” value is “B (EC1.5 1-25 μM)” and the Emax was under 350%.

For `Cc1cc(C)nc(NC(=O)c2cnc3ccc(-c4cccc(OC[C@H](O)CO)c4)nn23)c1` [Compound 591], on SIRT1 [1] (Trp peptide substrate), the “Trp EC1.5” value is “A (EC1.5<1 μM)” and the Emax is under 350%. Further, on SIRT1 [2] (TAMRA peptide substrate), the “TAMRA EC1.5” value is “A (EC1.5<1 μM)” and the Emax was at least 350%.

Consider `Cc1nc2ccc(-c3cccc(OC[C@H](O)CO)c3)nn2c1C(=O)Nc1ccncn1` [Compound 594], for which, on SIRT1 [1] (Trp peptide substrate), the “Trp EC1.5” value is listed as “B (EC1.5 1-25 μM)” and the Emax is under 350%. Besides, at SIRT1 [2] (TAMRA peptide substrate), the “TAMRA EC1.5” value is “B (EC1.5 1-25 μM)” and the Emax is under 350%.

Turning to `Cc1nc2ccc(-c3cccc(OC[C@H](O)CO)c3)nn2c1C(=O)Nc1cccnn1` [Compound 597], on SIRT1 [1] (Trp assay), the “Trp EC1.5 (μM)” value is “A (EC1.5<1 μM)” and the Emax was under 350%. Moreover, on SIRT1 [2] (TAMRA assay), the “TAMRA EC1.5 (μM)” value is reported as “B (EC1.5 1-25 μM)” and the Emax is under 350%.

As to `Cc1cc(-c2ccccc2C(F)(F)F)nn2c(C(=O)Nc3ccnc(O[C@@H]4CCOC4)n3)cnc12` [Compound 598], at SIRT1 [1] (Trp assay), the “Trp EC1.5 (μM)” value is given as “A (EC1.5<1 μM)” and the Emax was at least 350%. In addition, at SIRT1 [2] (TAMRA assay), the “TAMRA EC1.5 (μM)” value is recorded as “A (EC1.5<1 μM)” and the Emax is at least 350%.

For the compound `CCOc1nccc(NC(=O)c2cnc3ccc(-c4ccccc4C(F)(F)F)nn23)n1` [Compound 600], on SIRT1 [1] (Trp assay), the “Trp EC1.5 (μM)” value is “A (EC1.5<1 μM)” and the Emax is at least 350%. Besides, on SIRT1 [2] (TAMRA assay), the “TAMRA EC1.5 (μM)” value is “A (EC1.5<1 μM)” and the Emax is at least 350%.

For the compound `Cc1cnc(NC(=O)c2cnn3ccc(-c4ccccc4OC(F)(F)F)nc23)s1` [Compound 603], at SIRT1 [1] (Trp assay), the “Trp EC1.5 (μM)” value is given as “B (EC1.5 1-25 μM)” and the Emax is under 350%. Further, at SIRT1 [2] (TAMRA assay), the “TAMRA EC1.5 (μM)” value is “B (EC1.5 1-25 μM)” and the Emax was at least 350%.

Turning to `Cc1ccnc(NC(=O)c2cnn3ccc(-c4ccccc4OC(F)(F)F)nc23)c1` [Compound 604], at SIRT1 [1] (Trp assay), the “Trp EC1.5 (μM)” value was “B (EC1.5 1-25 μM)” and the Emax is under 350%. In addition, on SIRT1 [2] (TAMRA assay), the “TAMRA EC1.5 (μM)” value was “A (EC1.5<1 μM)” and the Emax is at least 350%.

Regarding `O=C(Nc1ccncc1F)c1cnn2ccc(-c3ccccc3OC(F)(F)F)nc12` [Compound 606], at SIRT1 [1] (Trp assay), the “Trp EC1.5 (μM)” value is given as “A (EC1.5<1 μM)” and the Emax is under 350%. Also, on SIRT1 [2] (TAMRA assay), the “TAMRA EC1.5 (μM)” value is listed as “A (EC1.5<1 μM)” and the Emax was at least 350%.

With `O=C(Nc1ccc(F)cn1)c1cnn2ccc(-c3ccccc3OC(F)(F)F)nc12` [Compound 609], on SIRT1 [1] (Trp assay), the “Trp EC1.5 (μM)” value is reported as “C (EC1.5>25 μM)” and the Emax was under 350%. Besides, at SIRT1 [2] (TAMRA assay), the “TAMRA EC1.5 (μM)” value is reported as “C (EC1.5>25 μM)” and the Emax was under 350%.

Turning to `Cc1ccncc1NC(=O)c1cnn2ccc(-c3ccccc3OC(F)(F)F)nc12` [Compound 610], on SIRT1 [1] (Trp assay), the “Trp EC1.5 (μM)” value was “A (EC1.5<1 μM)” and the Emax is at least 350%. Also, on SIRT1 [2] (TAMRA assay), the “TAMRA EC1.5 (μM)” value is “B (EC1.5 1-25 μM)” and the Emax was under 350%.

As for `Cc1cc(NC(=O)c2cnn3ccc(-c4ccccc4OC(F)(F)F)nc23)ccn1` [Compound 612], on SIRT1 [1] (Trp assay), the “Trp EC1.5 (μM)” value is “A (EC1.5<1 μM)” and the Emax is at least 350%. Also, at SIRT1 [2] (TAMRA assay), the “TAMRA EC1.5 (μM)” value is reported as “A (EC1.5<1 μM)” and the Emax was at least 350%.

`Cc1cc(-c2ccccc2C(F)(F)F)nn2c(C(=O)Nc3ccnc(OC(C)C)n3)cnc12` [Compound 615]: at SIRT1 [1] (Trp assay), the “Trp EC1.5 (μM)” value is recorded as “A (EC1.5<1 μM)” and the Emax was at least 350%. At SIRT1 [2] (TAMRA assay), the “TAMRA EC1.5 (μM)” value is listed as “A (EC1.5<1 μM)” and the Emax was at least 350%.

In the case of `Cc1cncc(NC(=O)c2cnn3ccc(-c4ccccc4OC(F)(F)F)nc23)c1` [Compound 616], at SIRT1 [1] (Trp assay), the “Trp EC1.5 (μM)” value is recorded as “A (EC1.5<1 μM)” and the Emax is at least 350%. Besides, on SIRT1 [2] (TAMRA assay), the “TAMRA EC1.5 (μM)” value is given as “A (EC1.5<1 μM)” and the Emax was at least 350%.
